According to patent US10351759B2, “Methods of assessing oil field saturation through use of reactive partitioning tracers” (RESTRACK AS, priority 2014, dated 2019):

Experiments:
Assay type in all cases: physicochemical
[1] = K-values of tested compounds A to G
Source text: Some tested compounds having other combinations of substitution and hydroxyalkyl group position include compounds A to G shown in FIG. 3.
These compounds have K-values measured as follows:
The K-values can vary with pH, as shown below for compounds B and F: […]

[2] = oil/water partition coefficient (K-value), static batch experiments, model oil
[3] = oil/water partition coefficient (K-value), static batch experiments, field oil phases North field 1 and North field 2; conditions: ionic strength in aqueous phase 0.776, pH 6.2, 50° C.
[4] = pH (aqueous phase) 6.2, ionic strength in aqueous phase 0.776, model oil (isooctane 60%/toluene 30%/1-octanol 10%), 50° C.
[5] = pH (aqueous phase) 7.0, ionic strength in aqueous phase 0.776, model oil (isooctane 60%/toluene 30%/1-octanol 10%), 50° C.
[6] = pH (aqueous phase) 8.0, ionic strength in aqueous phase 0.776, model oil (isooctane 60%/toluene 30%/1-octanol 10%), 50° C.

| oil/water partition coefficient, K-value ([2]; pH 6.2) | oil/water partition coefficient, K-value ([2]; pH 7) | oil/water partition coefficient, K-value ([2]; pH 8) | Compound | K-value ([1]; pH (aqueous phase) 6.2) | K-value ([1]; pH (aqueous phase) 7.0) | K-value ([1]; pH (aqueous phase) 8.0) | oil/water partition coefficient, K-value [2, 4] | oil/water partition coefficient, K-value [2, 5] | oil/water partition coefficient, K-value [2, 6] | oil/water partition coefficient, K-value ([3]; oil phase North field 1) | oil/water partition coefficient, K-value ([3]; oil phase North field 2) |
| --- | --- | --- | --- | --- | --- | --- | --- | --- | --- | --- | --- |
| – | – | – | COC(=O)c1c(F)ccc(CO)c1F [B, Methyl ester of 2-6-difluoro-3-hydroxymethyl benzoic acid] | 3.0 | 2.8 | 2.4 | – | – | – | – | – |
| – | – | – | CCCCOC(=O)c1ccc(CO)cc1F [Butyl ester of 2-fluoro-4-(hydroxymethyl) benzoic acid] | – | – | – | 127.5 | 126.1 | 132.2 | 18.7 | 23.6 |
| – | – | – | 2,3-difluoro hydroxybenzoic acid [reference compound] | – | – | – | 0.0 | 0.0 | 0.0 | – | – |
| 0.0 | 0.0 | 0.0 | O=C(O)c1ccc(CO)cc1F [2-fluoro-4-(hydroxymethyl) benzoic acid, 2-Fluoro-4-(hydroxymethyl)benzoic acid] | – | – | – | – | – | – | 0.0 | 0.0 |
| – | – | – | CCOC(=O)c1ccc(CO)cc1F [Ethyl ester of 2-fluoro-4-(hydroxymethyl) benzoic acid] | – | – | – | 10.9 | 11.2 | 11.8 | 1.6 | 2.5 |
| – | – | – | CCOC(=O)c1cc(F)cc(CO)c1 [F, Ethyl ester of 3-fluoro-5-hydroxymethyl benzoic acid] | 6.7 | 6.3 | 6.1 | – | – | – | – | – |
| – | – | – | COC(=O)c1ccc(CO)cc1F [Methyl ester of 2-fluoro-4-(hydroxymethyl) benzoic acid] | – | – | – | 3.2 | 3.4 | 3.3 | 0.6 | 0.8 |
| – | – | – | CCCOC(=O)c1ccc(CO)cc1F [Proply ester of 2-fluoro-4-(hydroxymethyl) benzoic acid] | – | – | – | 41.7 | 44.2 | 48.7 | 5.9 | 7.5 |
